# Experiments:
# [1] = test system: Human alphaherpesvirus 2; assay: Compound was evaluated for the antiviral activity against Herpes simplex virus type 2 (HSV-2) MS strain by using plaque reduction assay.; assay type: functional; conditions: read-out: ED50 (the source's name)
# [2] = test system: CCRF-HSB-2; assay: Compound was evaluated for the cytotoxicity against human T-cell leukemia, CCRF-HSB-2 by using MTT assay.; assay type: functional, cell-based
# [3] = test system: Human alphaherpesvirus 1; assay: Compound was evaluated for the antiviral activity against Herpes simplex virus type 1 (HSV-1) VR-3 strain by using plaque reduction assay.; assay type: functional; conditions: read-out: ED50 (the source's name)
# [4] = test system: Human alphaherpesvirus 3; assay: Compound was evaluated for the antiviral activity against Varicella-Zoster virus (VZV) Oka strain by using plaque reduction assay.; assay type: functional; conditions: read-out: ED50 (the source's name)
SMILES,EC50 [1] [µg/mL],EC50 [3] [µg/mL],EC50 [4] [µg/mL],IC50 [2] [µg/mL]
C[C@]1(CO)OC(n2cc(/C=C/Br)c(=O)[nH]c2=O)[C@H](O)[C@@H]1O (stereo not given in full),63.5,24.4,0.18,> 100
O=c1[nH]c(=O)n([C@@H]2O[C@H](CO)[C@@H](O)[C@H]2O)cc1/C=C/Br,62,0.048,0.00083,> 100
O=c1[nH]c(=O)n([C@H]2C[C@H](O)[C@@H](CO)O2)cc1/C=C/Br [BRIVUDINE],> 100,0.052,0.013,> 100

# The next lines start with results.
EC50 [1] [µg/mL],EC50 [3] [µg/mL],EC50 [4] [µg/mL],SMILES,IC50 [2] [µg/mL]
0.26,0.0053,0.00077,"C[C@]1(CO)O[C@@H](n2cc(/C=C/Br)c(=O)[nH]c2=O)CC1O (single isomer, unassigned)",0.45
0.27,0.071,0.094,C[C@@]1(CO)O[C@H](n2ccc(N)nc2=O)C[C@H]1O,0.12
